Key:
[1] = target: Coagulation factor X (Homo sapiens, UniProt P00742); test: Binding affinity to human f10a
[2] = target: Prothrombin (Homo sapiens, UniProt P00734); test: Binding affinity to human thrombin
[3] = target: Trypsin (Homo sapiens, UniProt P07477+P07478+P35030); test: Binding affinity to human trypsin; type: protein assay
[4] = target: Vitamin K-dependent protein C (Homo sapiens, UniProt P04070); test: Binding affinity to human activated protein C
[5] = target: Coagulation factor IX (Homo sapiens, UniProt P00740); test: Binding affinity to human f9a
Chain of Coagulation factor IX (P00740 47-191 limits assumed): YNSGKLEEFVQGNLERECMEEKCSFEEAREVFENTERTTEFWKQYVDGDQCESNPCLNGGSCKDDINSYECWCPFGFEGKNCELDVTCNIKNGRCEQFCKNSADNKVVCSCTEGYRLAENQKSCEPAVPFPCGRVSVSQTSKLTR
Chain of Coagulation factor IX (P00740 227-461 limits assumed): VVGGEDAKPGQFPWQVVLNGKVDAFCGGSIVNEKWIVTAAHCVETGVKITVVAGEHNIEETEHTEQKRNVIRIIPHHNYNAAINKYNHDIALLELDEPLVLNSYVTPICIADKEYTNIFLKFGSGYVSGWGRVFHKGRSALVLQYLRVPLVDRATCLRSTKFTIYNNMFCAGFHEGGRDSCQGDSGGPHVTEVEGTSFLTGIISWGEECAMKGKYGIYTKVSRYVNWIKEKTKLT

[6] = target: Plasminogen (Homo sapiens, UniProt P00747); test: Binding affinity to human plasmin
Chain of Plasminogen (P00747 97-580 limits assumed): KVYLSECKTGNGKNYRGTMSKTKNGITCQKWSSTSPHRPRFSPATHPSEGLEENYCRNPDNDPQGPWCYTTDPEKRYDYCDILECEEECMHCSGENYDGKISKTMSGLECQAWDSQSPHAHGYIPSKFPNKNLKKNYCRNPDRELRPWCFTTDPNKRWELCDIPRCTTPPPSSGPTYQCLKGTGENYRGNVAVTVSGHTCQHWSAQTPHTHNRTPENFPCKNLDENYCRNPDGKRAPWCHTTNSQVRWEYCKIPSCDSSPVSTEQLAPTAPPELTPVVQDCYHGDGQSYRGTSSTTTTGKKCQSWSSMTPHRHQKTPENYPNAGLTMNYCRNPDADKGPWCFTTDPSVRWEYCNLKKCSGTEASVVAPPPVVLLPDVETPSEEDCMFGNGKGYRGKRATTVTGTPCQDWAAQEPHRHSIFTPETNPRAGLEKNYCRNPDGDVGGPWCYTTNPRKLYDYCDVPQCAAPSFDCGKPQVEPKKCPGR
Chain of Plasminogen (P00747 581-810 limits assumed): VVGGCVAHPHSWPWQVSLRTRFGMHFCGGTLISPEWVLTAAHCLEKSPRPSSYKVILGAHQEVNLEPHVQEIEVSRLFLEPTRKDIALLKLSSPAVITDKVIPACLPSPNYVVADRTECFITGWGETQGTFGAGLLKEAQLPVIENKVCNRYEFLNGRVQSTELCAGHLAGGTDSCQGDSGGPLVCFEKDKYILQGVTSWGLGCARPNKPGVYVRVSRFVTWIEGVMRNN

[7] = target: Tissue-type plasminogen activator (Homo sapiens, UniProt P00750); test: Binding affinity to human tPA
Chain of Tissue-type plasminogen activator (P00750 whole entry): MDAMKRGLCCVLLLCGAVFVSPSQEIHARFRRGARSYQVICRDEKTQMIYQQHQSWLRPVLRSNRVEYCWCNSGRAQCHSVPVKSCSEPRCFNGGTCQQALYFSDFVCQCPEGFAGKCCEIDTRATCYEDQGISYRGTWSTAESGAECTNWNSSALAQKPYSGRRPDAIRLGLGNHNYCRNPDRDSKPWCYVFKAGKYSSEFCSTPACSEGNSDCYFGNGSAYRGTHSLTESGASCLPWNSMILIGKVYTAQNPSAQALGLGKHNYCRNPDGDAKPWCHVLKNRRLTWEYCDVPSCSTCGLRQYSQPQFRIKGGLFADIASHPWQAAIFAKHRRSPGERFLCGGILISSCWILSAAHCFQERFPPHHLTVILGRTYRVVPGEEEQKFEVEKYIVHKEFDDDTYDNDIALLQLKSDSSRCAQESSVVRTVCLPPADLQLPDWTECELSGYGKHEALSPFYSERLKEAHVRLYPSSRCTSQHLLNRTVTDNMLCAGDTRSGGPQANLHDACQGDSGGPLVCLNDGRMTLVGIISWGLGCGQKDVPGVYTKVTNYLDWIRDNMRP

[8] = target: Urokinase-type plasminogen activator (Homo sapiens, UniProt P00749); test: Binding affinity to human urokinase
[9] = target: Chymotrypsinogen B (Homo sapiens, UniProt P17538); test: Binding affinity to human chymotrypsin
Chain of Chymotrypsinogen B (P17538 34-164 limits assumed, other chains not shown): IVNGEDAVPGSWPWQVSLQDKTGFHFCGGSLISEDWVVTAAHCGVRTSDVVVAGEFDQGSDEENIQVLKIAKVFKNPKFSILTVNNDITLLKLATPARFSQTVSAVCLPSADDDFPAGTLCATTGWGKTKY
Chain of Chymotrypsinogen B (P17538 167-263 limits assumed, other chains not shown): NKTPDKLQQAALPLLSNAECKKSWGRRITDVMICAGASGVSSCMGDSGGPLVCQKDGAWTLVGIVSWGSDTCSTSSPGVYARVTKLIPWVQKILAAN

[10] = target: T1, Coagulation factor X (Oryctolagus cuniculus, UniProt O19045); test: Binding affinity to rabbit f10a
T1 sequence (O19045 whole entry): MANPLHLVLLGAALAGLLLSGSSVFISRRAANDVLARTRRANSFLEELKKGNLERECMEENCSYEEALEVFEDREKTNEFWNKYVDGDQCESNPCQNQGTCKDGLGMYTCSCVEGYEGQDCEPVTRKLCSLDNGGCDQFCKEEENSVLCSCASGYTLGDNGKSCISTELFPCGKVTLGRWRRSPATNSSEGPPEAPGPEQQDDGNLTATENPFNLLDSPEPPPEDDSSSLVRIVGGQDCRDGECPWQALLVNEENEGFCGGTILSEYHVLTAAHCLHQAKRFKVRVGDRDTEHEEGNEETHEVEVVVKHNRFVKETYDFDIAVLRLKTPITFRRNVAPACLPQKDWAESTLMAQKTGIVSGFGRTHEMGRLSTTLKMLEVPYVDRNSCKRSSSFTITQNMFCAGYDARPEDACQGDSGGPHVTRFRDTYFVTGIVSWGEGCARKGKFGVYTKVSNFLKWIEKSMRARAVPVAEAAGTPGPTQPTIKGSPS

[11] = system: Oryctolagus cuniculus; test: Inhibition of thrombus formation in iv dosed rabbit arterio-venous shunt model; type: functional, organism-based
[12] = Stability at pH 1.0; type: physicochemical; settings: buffer
[13] = Stability at pH 4.0; type: physicochemical; settings: buffer

Chain of Vitamin K-dependent protein C (P04070 43-197 limits assumed): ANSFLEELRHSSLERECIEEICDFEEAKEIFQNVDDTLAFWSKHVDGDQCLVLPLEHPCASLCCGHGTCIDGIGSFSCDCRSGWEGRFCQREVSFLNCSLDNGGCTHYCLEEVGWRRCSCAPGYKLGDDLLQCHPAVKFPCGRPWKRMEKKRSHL
Chain of Vitamin K-dependent protein C (P04070 212-461 limits assumed): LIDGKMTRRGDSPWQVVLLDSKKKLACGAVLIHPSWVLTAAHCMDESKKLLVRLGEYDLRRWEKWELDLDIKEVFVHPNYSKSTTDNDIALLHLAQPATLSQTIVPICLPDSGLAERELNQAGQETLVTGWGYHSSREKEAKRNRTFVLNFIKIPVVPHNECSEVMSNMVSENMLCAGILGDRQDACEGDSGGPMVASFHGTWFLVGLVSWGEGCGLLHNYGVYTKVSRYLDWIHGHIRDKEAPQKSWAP
Chain of Coagulation factor X (Homo sapiens, UniProt P00742) (P00742 41-179 limits assumed): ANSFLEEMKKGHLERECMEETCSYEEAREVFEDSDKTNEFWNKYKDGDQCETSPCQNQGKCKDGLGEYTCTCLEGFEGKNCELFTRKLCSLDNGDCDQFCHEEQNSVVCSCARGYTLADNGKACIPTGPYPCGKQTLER
Chain of Coagulation factor X (Homo sapiens, UniProt P00742) (P00742 235-488 limits assumed): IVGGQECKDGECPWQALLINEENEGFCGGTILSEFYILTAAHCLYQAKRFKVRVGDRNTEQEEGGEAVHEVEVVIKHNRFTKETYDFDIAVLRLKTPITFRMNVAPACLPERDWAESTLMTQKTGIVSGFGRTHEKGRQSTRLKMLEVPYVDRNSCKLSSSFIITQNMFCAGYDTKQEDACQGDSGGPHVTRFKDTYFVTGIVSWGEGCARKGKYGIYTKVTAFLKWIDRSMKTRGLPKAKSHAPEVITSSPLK

For Cc1nn(-c2ccc3onc(N)c3c2)c2c(=O)n(-c3ccc(-c4ccccc4CN(C)C)cc3)c(C)nc12, the Ki [1] was 0.00027 µM, the Ki [2] was 0.305 µM and the Ki [3] was over 4.2 µM. It also gave a Ki [4] of 19 µM, a Ki [5] of over 41 µM and a Ki [6] of over 15 µM. It also gave a Ki [7] of 23 µM, a Ki [8] of over 13 µM and a Ki [9] of 0.96 µM. It also gave a Ki [10] of 0.0003 µM, an ID50 [11] of 2 µmol/kg/h and a Stability [12] of 89.7%. It also gave a Stability [13] of 94.7%.
